For orientation: IC50 means the concentration needed to halve the response being measured.

Bridge positions count the residues as written; N and C are the ends. Square brackets hold non-standard residues; d marks the D form. Peptide text beside a SMILES is read from it. * marks the point of attachment. ξ: configuration not given here. Phe(3-CF3) = N[C@@H](Cc1cccc(C(F)(F)F)c1)C(=O)O; Ala(morpholin-4-yl) = N[C@@H](CN1CCOCC1)C(=O)O; Phe(4-COOH) = N[C@@H](Cc1ccc(C(=O)O)cc1)C(=O)O; Bip = N[C@@H](Cc1ccc(-c2ccccc2)cc1)C(=O)O; Phe(3-Me) = Cc1cccc(C[C@H](N)C(=O)O)c1; Val(3-OH) = CC(C)(O)[C@H](N)C(=O)O; 3Pal = N[C@@H](Cc1cccnc1)C(=O)O; 4Pal = N[C@@H](Cc1ccncc1)C(=O)O; Cha = N[C@@H](CC1CCCCC1)C(=O)O; Cit = NC(=O)NCCC[C@H](N)C(=O)O; Thr(3ξ) = CC(O)[C@H](N)C(=O)O; Pip = O=C(O)[C@@H]1CCCCN1; Carboxymethyl = O=C(O)C*; NMeA = CN[C@@H](C)C(=O)O; Orn = NCCC[C@H](N)C(=O)O; Dab = NCC[C@H](N)C(=O)O; Dap = NC[C@H](N)C(=O)O

T1 sequence (Q15116 25-288): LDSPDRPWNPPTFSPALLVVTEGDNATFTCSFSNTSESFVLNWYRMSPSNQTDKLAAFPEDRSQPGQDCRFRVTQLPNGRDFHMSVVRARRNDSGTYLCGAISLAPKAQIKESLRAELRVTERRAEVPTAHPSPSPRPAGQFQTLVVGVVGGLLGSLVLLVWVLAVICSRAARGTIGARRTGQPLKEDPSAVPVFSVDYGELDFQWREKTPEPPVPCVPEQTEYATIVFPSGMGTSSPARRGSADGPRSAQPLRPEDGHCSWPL

The test addresses T1, PE-labeled human PD-L1-Ig binding to Jurkat cell line over-expressing human PD-1 (Jurkat-PD-1) (Homo sapiens, UniProt Q15116).
T1 construct: expressed in transfected cells; host or cells: Jurkat
The experiment in a line: Jurkat-PD-1 Cell Binding High-Content Screening Assay (CBA): Method 1. As to conditions: Jurkat-hPD-1 cells, PE-labeled PD-L1-Ig 20 nM final; read-out: Jurkat HPDL1 PD1 IC50 (uM) (Method 1).
Take `Cc1cccc(C[C@@H]2NC(=O)[C@H](CC(=O)O)NC(=O)[C@H](Cc3ccc(OCC(=O)O)cc3)NC(=O)[C@H](Cc3ccncc3)NC(=O)CSC[C@@H](C(=O)N[C@@H](CCN)C(N)=O)NC(=O)[C@H](CCC(=O)O)NC(=O)[C@H](C(C)(C)O)NC(=O)[C@H](CC3CCCCC3)NC(=O)[C@H](CCN)NC(=O)[C@@H](CC(C)C)NC(=O)[C@H](C)N(C)C(=O)[C@H](Cc3ccc(C(=O)O)cc3)NC(=O)[C@H](Cc3ccc(-c4ccccc4)cc3)NC(=O)[C@H](Cc3ccc(C(=O)O)cc3)NC2=O)c1` [Compound 2196] ({CH2CO}-[4Pal]Y(Carboxymethyl)D[Phe(3-Me)][Phe(4-COOH)][Bip][Phe(4-COOH)][NMeA][dL][Dab][Cha][Val(3-OH)]EC[Dab]-NH2; thioether N-14): the IC50 is 0.02 µM. Consider `Cc1cccc(C[C@@H]2NC(=O)[C@H](CC(=O)O)NC(=O)[C@H](Cc3ccncc3)NC(=O)[C@H](CN)NC(=O)CSC[C@@H](C(=O)N[C@@H](C)C(N)=O)NC(=O)[C@H]([C@@H](C)O)NC(=O)[C@H](C(C)C)NC(=O)[C@H](CC(C)C)NC(=O)[C@H](CCN)NC(=O)[C@@H](CC(C)C)NC(=O)[C@H](C)N(C)C(=O)[C@H](CCCNC(N)=O)NC(=O)[C@H](Cc3ccc(-c4ccccc4)cc3)NC(=O)[C@H](C(C)C)NC2=O)c1` [Compound 1546] ({CH2CO}-[Dap][4Pal]D[Phe(3-Me)]V[Bip][Cit][NMeA][dL][Dab]LVTCA-NH2; thioether N-14), for which the IC50 was determined as 0.02 µM. With `CC(C)C[C@H]1NC(=O)[C@H](C)N(C)C(=O)[C@H](CCCNC(N)=O)NC(=O)[C@H](Cc2ccc(-c3ccccc3)cc2)NC(=O)[C@H](C(C)C)NC(=O)[C@H](Cc2c[nH]c3ccccc23)NC(=O)[C@H](CC(=O)O)NC(=O)[C@H](Cc2ccc(OCC(=O)O)cc2)NC(=O)[C@H](Cc2ccccc2)NC(=O)CSC[C@@H](C(=O)N[C@@H](C)C(N)=O)NC(=O)[C@H](CO)NC(=O)[C@H](C(C)C)NC(=O)[C@H](CC2CCCCC2)NC(=O)[C@H](CC(N)=O)NC1=O` [Compound 2022] ({CH2CO}-FY(Carboxymethyl)DWV[Bip][Cit][NMeA][dL]N[Cha]VSCA-NH2; thioether N-14), the IC50 was found to be 0.01 µM. Under `CC(C)C[C@@H]1NC(=O)[C@H](Cc2c[nH]c3ccccc23)NC(=O)[C@H](CC(=O)O)NC(=O)[C@H](Cc2ccc(C(=O)O)cc2)NC(=O)[C@H](Cc2cccnc2)NC(=O)CSC[C@@H](C(=O)N[C@@H](C)C(N)=O)NC(=O)[C@H](CO)NC(=O)[C@H](C(C)C)NC(=O)[C@H](CC(C)C)NC(=O)[C@H](CCCCN)NC(=O)[C@@H](C)NC(=O)[C@H](C)N(C)C(=O)[C@H](CCC(=O)O)NC(=O)[C@H](Cc2ccc(-c3ccccc3)cc2)NC1=O` [Compound 1761] ({CH2CO}-[3Pal][Phe(4-COOH)]DWL[Bip]E[NMeA][dA]KLVSCA-NH2; thioether N-14) stands 0.03 µM; under `CC(C)C[C@@H]1NC(=O)[C@H](C)NC(=O)[C@@H](C)NC(=O)[C@H](C)N(C)C(=O)[C@H](C(C)C)NC(=O)[C@H](Cc2ccc(-c3ccccc3)cc2)NC(=O)[C@H](CC(C)C)NC(=O)[C@H](Cc2c[nH]c3ccccc23)NC(=O)[C@H](CC(=O)O)NC(=O)[C@H](Cc2ccc(O)cc2)NC(=O)[C@H](Cc2ccccc2)NC(=O)CSC[C@@H](C(=O)N[C@@H](C)C(N)=O)NC(=O)[C@H](CO)NC(=O)[C@H](C(C)C)NC1=O` [Compound 1733] ({CH2CO}-FYDWL[Bip]V[NMeA][dA]ALVSCA-NH2; thioether N-14), 0.01 µM.

With `CC(C)C[C@@H]1NC(=O)[C@H](CCN)NC(=O)[C@@H](CC(C)C)NC(=O)[C@H](C)N(C)C(=O)[C@H](CCCNC(N)=O)NC(=O)[C@H](Cc2ccc(-c3ccccc3)cc2)NC(=O)[C@H](C(C)C)NC(=O)[C@H](Cc2c[nH]c3ccccc23)NC(=O)[C@H](CC(=O)O)NC(=O)[C@H](Cc2ccc(O)cc2)NC(=O)[C@H](CC(N)=O)NC(=O)CSC[C@@H](C(=O)N[C@@H](C)C(N)=O)NC(=O)[C@H](CCCN)NC(=O)[C@H](C(C)C)NC1=O` [Compound 1232] ({CH2CO}-NYDWV[Bip][Cit][NMeA][dL][Dab]LV[Orn]CA-NH2; thioether N-14), the half-maximal inhibitory concentration (IC50) was determined as 0.12 µM.

For `Cc1cccc(C[C@@H]2NC(=O)[C@H](CC(=O)O)NC(=O)[C@H](Cc3ccc(OCC(=O)O)cc3)NC(=O)[C@H]([C@@H](C)O)NC(=O)CSC[C@@H](C(N)=O)NC(=O)[C@H](CCC(N)=O)NC(=O)[C@H](C(C)C)NC(=O)[C@H](CC3CCCCC3)NC(=O)[C@H](CC(N)=O)NC(=O)[C@@H](CC(C)C)NC(=O)[C@H](C)N(C)C(=O)[C@H](Cc3ccc(OCC(=O)O)cc3)NC(=O)[C@H](Cc3ccc(-c4ccccc4)cc3)NC(=O)[C@H](Cc3ccc(OCC(=O)O)cc3)NC2=O)c1` [Compound 1677] ({CH2CO}-TY(Carboxymethyl)D[Phe(3-Me)]Y(Carboxymethyl)[Bip]Y(Carboxymethyl)[NMeA][dL]N[Cha]VQC-NH2; thioether N-14), the IC50 worked out at 0.16 µM. As for `Cc1cccc(C[C@@H]2NC(=O)[C@H](CC(=O)O)NC(=O)[C@H](Cc3ccc(O)cc3)NC(=O)[C@H](CC(N)=O)NC(=O)CSC[C@@H](C(=O)N[C@@H](C)C(N)=O)NC(=O)[C@H]([C@@H](C)O)NC(=O)[C@H](C(C)C)NC(=O)[C@H](CC(C)C)NC(=O)[C@H](CCCNC(=N)N)NC(=O)[C@@H](CC(C)C)NC(=O)[C@H](C)N(C)C(=O)[C@H](CCCNC(=N)N)NC(=O)[C@H](Cc3ccc(-c4ccccc4)cc3)NC(=O)[C@H](C(C)C)NC2=O)c1` [Compound 1192] ({CH2CO}-NYD[Phe(3-Me)]V[Bip]R[NMeA][dL]RLVTCA-NH2; thioether N-14), the figure is 0.03 µM; as for `Cc1cccc(C[C@@H]2NC(=O)[C@H](CC(=O)O)NC(=O)[C@H](Cc3ccc(OCC(=O)O)cc3)NC(=O)[C@H](CN)NC(=O)CSC[C@@H](C(N)=O)NC(=O)[C@H](CCC(=O)O)NC(=O)[C@H](C(C)C)NC(=O)[C@H](CC3CCCCC3)NC(=O)[C@H](CCN)NC(=O)[C@@H](CC(C)C)NC(=O)[C@@H]3CCCCN3C(=O)[C@H](Cc3ccc(OCC(=O)O)cc3)NC(=O)[C@H](Cc3ccc(-c4ccccc4)cc3)NC(=O)[C@H](Cc3ccc(OCC(=O)O)cc3)NC2=O)c1` [Compound 1894] ({CH2CO}-[Dap]Y(Carboxymethyl)D[Phe(3-Me)]Y(Carboxymethyl)[Bip]Y(Carboxymethyl)[Pip][dL][Dab][Cha]VEC-NH2; thioether N-14), 0.3 µM. Turning to `CC(C)C[C@@H]1NC(=O)[C@H](C)NC(=O)[C@@H](C)NC(=O)[C@H](C)N(C)C(=O)[C@H](CCC(=O)O)NC(=O)[C@H](Cc2ccc(-c3ccccc3)cc2)NC(=O)[C@H](CC(C)C)NC(=O)[C@H](Cc2c[nH]c3ccccc23)NC(=O)[C@H](CC(=O)O)NC(=O)[C@H](Cc2ccc(O)cc2)NC(=O)[C@H](Cc2ccccc2)NC(=O)CSC[C@@H](C(=O)N[C@@H](C)C(N)=O)NC(=O)[C@H](CO)NC(=O)[C@H](C(C)C)NC1=O` [Compound 1785] ({CH2CO}-FYDWL[Bip]E[NMeA][dA]ALVSCA-NH2; thioether N-14), the IC50 came out at 0.09 µM.

With `CC(C)C[C@@H]1NC(=O)[C@H](Cc2c[nH]c3ccccc23)NC(=O)[C@H](CC(=O)O)NC(=O)[C@H](Cc2ccc(O)cc2)NC(=O)[C@H](Cc2ccccc2)NC(=O)CSC[C@@H](C(=O)N[C@@H](C)C(N)=O)NC(=O)[C@H](CO)NC(=O)[C@H](CCN)NC(=O)[C@H](CC(C)C)NC(=O)[C@H](CC(N)=O)NC(=O)[C@@H](CC(C)C)NC(=O)[C@H](C)N(C)C(=O)[C@H](C(C)C)NC(=O)[C@H](Cc2ccc(-c3ccccc3)cc2)NC1=O` [Compound 1538] ({CH2CO}-FYDWL[Bip]V[NMeA][dL]NL[Dab]SCA-NH2; thioether N-14), the IC50 worked out at 0.1 µM. As for `CC(C)C[C@@H]1NC(=O)[C@H](CCN)NC(=O)[C@@H](CC(C)C)NC(=O)[C@H](C)N(C)C(=O)[C@H](C(C)C)NC(=O)[C@H](Cc2ccc(-c3ccccc3)cc2)NC(=O)[C@H](C(C)C)NC(=O)[C@H](Cc2c[nH]c3ccccc23)NC(=O)[C@H](CC(=O)O)NC(=O)[C@H](Cc2ccc(OCC(=O)O)cc2)NC(=O)[C@H](CN)NC(=O)CSC[C@@H](C(=O)N[C@@H](C)C(N)=O)NC(=O)[C@H]([C@@H](C)O)NC(=O)[C@H](C(C)C)NC1=O` [Compound 1447] ({CH2CO}-[Dap]Y(Carboxymethyl)DWV[Bip]V[NMeA][dL][Dab]LVTCA-NH2; thioether N-14), the 50% inhibitory concentration (IC50) was 0.03 µM. As to `CC(C)[C@@H]1NC(=O)[C@H](CC2CCCCC2)NC(=O)[C@H](CCN)NC(=O)CNC(=O)[C@H](C)N(C)C(=O)[C@H](Cc2ccc(C(=O)O)cc2)NC(=O)[C@H](Cc2ccc(-c3ccccc3)cc2)NC(=O)[C@H](Cc2ccc(C(=O)O)cc2)NC(=O)[C@H](Cc2cccc(C(F)(F)F)c2)NC(=O)[C@H](CC(=O)O)NC(=O)[C@H](Cc2ccc(C(=O)O)cc2)NC(=O)[C@H](CN2CCOCC2)NC(=O)CSC[C@@H](C(=O)N[C@@H](CCN)C(N)=O)NC(=O)[C@H](CCC(=O)O)NC1=O` [Example 2286] ({CH2CO}-[Ala(morpholin-4-yl)][Phe(4-COOH)]D[Phe(3-CF3)][Phe(4-COOH)][Bip][Phe(4-COOH)][NMeA]G[Dab][Cha]VEC[Dab]-NH2; thioether N-14), the IC50 was determined as 0.08 µM. As for `CC(=O)NCCCC[C@@H]1NC(=O)[C@H](Cc2ccc(-c3ccccc3)cc2)NC(=O)[C@H](Cc2ccc(O)cc2)NC(=O)[C@H](Cc2cccc(C)c2)NC(=O)[C@H](CC(=O)O)NC(=O)[C@H](Cc2ccc(OCC(=O)O)cc2)NC(=O)[C@H](C(C)O)NC(=O)CSC[C@@H](C(=O)N[C@H](CC(N)=O)C(N)=O)NC(=O)[C@H](C(C)O)NC(=O)[C@H](C(C)C)NC(=O)[C@H](CC2CCCCC2)NC(=O)[C@H](CCN)NC(=O)[C@@H](CC(C)C)NC(=O)[C@H](C)N(C)C1=O` (stereo partly drawn) [Compound 2118] ({CH2CO}-[Thr(3ξ)]Y(Carboxymethyl)D[Phe(3-Me)]Y[Bip]K(Ac)[NMeA][dL][Dab][Cha]V[Thr(3ξ)]C[dN]-NH2; thioether N-14), the figure is 0.05 µM.

The record behind these values is patent US20240409585A1, “MACROCYCLIC IMMUNOMODULATORS” (priority 2021, published 2024).
